In patent EP0510271A1, “Novel R106 compounds” (TAKARA SHUZO CO. LTD., priority 1991, dated 1992):
*1 amine or outer side, *2 acyl side, *3 side chain or, on linkers, in order; H or OH if unused. Where a SMILES comes first, the peptide text is derived from it. [ ]: non-standard residue; d: D form. ξ: configuration not given here. NMePhe(3-F) = CN[CH](Cc1cccc(F)c1)C(=O)O; NMePhe(2-F) = CN[CH](Cc1ccccc1F)C(=O)O; Phe(3-F) = N[CH](Cc1cccc(F)c1)C(=O)O; ξNMeVal(3-OH) = CNC(C(=O)O)C(C)(C)O; Phe(2-F) = N[CH](Cc1ccccc1F)C(=O)O; NMeY = CN[CH](Cc1ccc(O)cc1)C(=O)O; NMeF = CN[CH](Cc1ccccc1)C(=O)O; X1 = CCC(C)C(O[*:1])C(=O)[*:2]; Hyp = O=C(O)[CH]1C[CH](O)CN1; NMeV = CN[CH](C(=O)O)C(C)C; NMeS = CN[CH](CO)C(=O)O; Thz = O=C(O)[CH]1CSCN1

Experiment: solubility in water
Conditions: compared with antibiotics R106

Row | SMILES | solubility in water
1 | CCC(C)C1NC(=O)C2CCCN2C(=O)C(Cc2ccccc2F)N(C)C(=O)C(Cc2ccccc2F)NC(=O)C(C(C)C)N(C)C(=O)C(C(C)CC)OC(=O)C(C(C)(C)O)N(C)C(=O)C(CC(C)C)NC(=O)C(C(C)C)N(C)C1=O (stereo not drawn) [Compound 1] (cyclo([ξNMeVal(3-OH)][X1][NMeV][Phe(2-F)][NMePhe(2-F)]PI[NMeV]L); configuration not given here) | higher solubility in water than antibiotics R106
2 | CCC(C)C1NC(=O)C2CCCN2C(=O)C(Cc2cccc(F)c2)N(C)C(=O)C(Cc2cccc(F)c2)NC(=O)C(C(C)C)N(C)C(=O)C(C(C)CC)OC(=O)C(C(C)(C)O)N(C)C(=O)C(CC(C)C)NC(=O)C(C(C)C)N(C)C1=O (stereo not drawn) [Compound 2] (cyclo([ξNMeVal(3-OH)][X1][NMeV][Phe(3-F)][NMePhe(3-F)]PI[NMeV]L); configuration not given here) | higher solubility in water than antibiotics R106
3 | CCC(C)C1NC(=O)C2CCCN2C(=O)C(Cc2ccc(O)cc2)N(C)C(=O)C(Cc2ccc(O)cc2)NC(=O)C(C(C)C)N(C)C(=O)C(C(C)CC)OC(=O)C(C(C)(C)O)N(C)C(=O)C(CC(C)C)NC(=O)C(C(C)C)N(C)C1=O (stereo not drawn) [Compound 3] (cyclo([ξNMeVal(3-OH)][X1][NMeV]Y[NMeY]PI[NMeV]L); configuration not given here) | higher solubility in water than antibiotics R106
4 | CCC(C)C1NC(=O)C2CC(O)CN2C(=O)C(Cc2ccccc2)N(C)C(=O)C(Cc2ccccc2)NC(=O)C(C(C)C)N(C)C(=O)C(C(C)CC)OC(=O)C(C(C)(C)O)N(C)C(=O)C(CC(C)C)NC(=O)C(C(C)C)N(C)C1=O (stereo not drawn) [Compound 4] (cyclo([ξNMeVal(3-OH)][X1][NMeV]F[NMeF][Hyp]I[NMeV]L); configuration not given here) | higher solubility in water than antibiotics R106
5 | CCC(C)C1NC(=O)C2CSCN2C(=O)C(Cc2ccccc2)N(C)C(=O)C(Cc2ccccc2)NC(=O)C(C(C)C)N(C)C(=O)C(C(C)CC)OC(=O)C(C(C)(C)O)N(C)C(=O)C(CC(C)C)NC(=O)C(C(C)C)N(C)C1=O (stereo not drawn) [Compound 5] (cyclo([ξNMeVal(3-OH)][X1][NMeV]F[NMeF][Thz]I[NMeV]L); configuration not given here) | higher solubility in water than antibiotics R106
6 | CCC(C)C1NC(=O)C2CCCN2C(=O)C(CO)N(C)C(=O)C(Cc2ccccc2)NC(=O)C(C(C)C)N(C)C(=O)C(C(C)CC)OC(=O)C(C(C)(C)O)N(C)C(=O)C(CC(C)C)NC(=O)C(C(C)C)N(C)C1=O (stereo not drawn) [Compound 9] (cyclo([ξNMeVal(3-OH)][X1][NMeV]F[NMeS]PI[NMeV]L); configuration not given here) | higher solubility in water than antibiotics R106
